{"source": "patent US20230330093A1", "about": "“APPLICATION OF NITROGEN-CONTAINING SATURATED HETEROCYCLIC COMPOUND” (SHANGHAI PHARMACEUTICALS HOLDING CO., LTD., priority 2020, published 2023)", "system": "cynomolgus monkeys", "test": "4-week safety study: routine ECG analysis", "assay_type": "in vivo", "method": "Routine ECG analysis was performed at each scheduled time (day 1 after administration, d01 and d02 after administration, 1 and 24 h after administration on day 1, before administration, and 1 and 24 h after administration on day 26 and day 56). P-wave, R-wave, T-wave, P-R intervals, Q-T intervals, QRS duration and heart rate were recorded by an ECG system using derivation DII (ECG-6951E, Shanghai, China).", "data": [{"smiles": "COC(=O)NCCCn1nc([C@@H](C)N(C(=O)[C@H]2CNCCO2)C2CC2)c2ccc(C)nc21", "note": "[compound of Formula I]", "values": [{"measurement": "HR", "setting": "Female, 20 mg/kg, 1 h (d 1)", "value": "230.1 ± 20.5", "unit": "bmp"}, {"measurement": "QRS", "setting": "Female, 20 mg/kg, 1 h (d 1)", "value": "38.0 ± 4.5", "unit": "ms"}, {"measurement": "QT", "setting": "Female, 20 mg/kg, 1 h (d 1)", "value": "160.0 ± 7.1", "unit": "ms"}, {"measurement": "QTc", "setting": "Female, 20 mg/kg, 1 h (d 1)", "value": "250.2 ± 10.4", "unit": "ms"}, {"measurement": "HR", "setting": "Female, 20 mg/kg, 1 h (d 26)", "value": "262.8 ± 13.5", "unit": "bmp"}, {"measurement": "QRS", "setting": "Female, 20 mg/kg, 1 h (d 26)", "value": "36.0 ± 5.5", "unit": "ms"}, {"measurement": "QT", "setting": "Female, 20 mg/kg, 1 h (d 26)", "value": "140.0 ± 7.1", "unit": "ms"}, {"measurement": "QTc", "setting": "Female, 20 mg/kg, 1 h (d 26)", "value": "228.9 ± 8.0", "unit": "ms"}, {"measurement": "HR", "setting": "Female, 20 mg/kg, 24 h (d 1)", "value": "209.8 ± 9.3", "unit": "bmp"}, {"measurement": "QRS", "setting": "Female, 20 mg/kg, 24 h (d 1)", "value": "34.0 ± 8.9", "unit": "ms"}, {"measurement": "QT", "setting": "Female, 20 mg/kg, 24 h (d 1)", "value": "158.0 ± 4.5", "unit": "ms"}, {"measurement": "QTc", "setting": "Female, 20 mg/kg, 24 h (d 1)", "value": "239.7 ± 5.4", "unit": "ms"}, {"measurement": "HR", "setting": "Female, 20 mg/kg, 24 h (d 26)", "value": "245.4 ± 43.9", "unit": "bmp"}, {"measurement": "QRS", "setting": "Female, 20 mg/kg, 24 h (d 26)", "value": "36.0 ± 5.5", "unit": "ms"}, {"measurement": "QT", "setting": "Female, 20 mg/kg, 24 h (d 26)", "value": "150.0 ± 10.0", "unit": "ms"}, {"measurement": "QTc", "setting": "Female, 20 mg/kg, 24 h (d 26)", "value": "238.6 ± 14.1", "unit": "ms"}, {"measurement": "HR", "setting": "Female, 20 mg/kg, d0", "value": "185.7 ± 48.0", "unit": "bmp"}, {"measurement": "QRS", "setting": "Female, 20 mg/kg, d0", "value": "34.0 ± 5.5", "unit": "ms"}, {"measurement": "QT", "setting": "Female, 20 mg/kg, d0", "value": "170.0 ± 20.0", "unit": "ms"}, {"measurement": "QTc", "setting": "Female, 20 mg/kg, d0", "value": "244.6 ± 14.3", "unit": "ms"}, {"measurement": "HR", "setting": "Female, 20 mg/kg, d 56", "value": "238.0 ± 29.2", "unit": "bmp"}, {"measurement": "QRS", "setting": "Female, 20 mg/kg, d 56", "value": "40.0 ± 0.0", "unit": "ms"}, {"measurement": "QT", "setting": "Female, 20 mg/kg, d 56", "value": "160.0 ± 0.0", "unit": "ms"}, {"measurement": "QTc", "setting": "Female, 20 mg/kg, d 56", "value": "253.1 ± 10.4", "unit": "ms"}, {"measurement": "HR", "setting": "Female, 100 mg/kg, 1 h (d 1)", "value": "228.5 ± 12.8", "unit": "bmp"}, {"measurement": "QRS", "setting": "Female, 100 mg/kg, 1 h (d 1)", "value": "36.0 ± 5.5", "unit": "ms"}, {"measurement": "QT", "setting": "Female, 100 mg/kg, 1 h (d 1)", "value": "160.0 ± 7.1", "unit": "ms"}, {"measurement": "QTc", "setting": "Female, 100 mg/kg, 1 h (d 1)", "value": "249.6 ± 6.7", "unit": "ms"}, {"measurement": "HR", "setting": "Female, 100 mg/kg, 1 h (d 26)", "value": "246.4 ± 40.7", "unit": "bmp"}, {"measurement": "QRS", "setting": "Female, 100 mg/kg, 1 h (d 26)", "value": "38.0 ± 4.5", "unit": "ms"}, {"measurement": "QT", "setting": "Female, 100 mg/kg, 1 h (d 26)", "value": "170.0 ± 10.0", "unit": "ms"}, {"measurement": "QTc", "setting": "Female, 100 mg/kg, 1 h (d 26)", "value": "271.1 ± 17.2", "unit": "ms"}, {"measurement": "HR", "setting": "Female, 100 mg/kg, 24 h (d 1)", "value": "217.6 ± 22.7", "unit": "bmp"}, {"measurement": "QRS", "setting": "Female, 100 mg/kg, 24 h (d 1)", "value": "34.0 ± 5.5", "unit": "ms"}, {"measurement": "QT", "setting": "Female, 100 mg/kg, 24 h (d 1)", "value": "162.0 ± 11.0", "unit": "ms"}, {"measurement": "QTc", "setting": "Female, 100 mg/kg, 24 h (d 1)", "value": "248.2 ± 7.7", "unit": "ms"}, {"measurement": "HR", "setting": "Female, 100 mg/kg, 24 h (d 26)", "value": "256.1 ± 17.1", "unit": "bmp"}, {"measurement": "QRS", "setting": "Female, 100 mg/kg, 24 h (d 26)", "value": "38.0 ± 4.5", "unit": "ms"}, {"measurement": "QT", "setting": "Female, 100 mg/kg, 24 h (d 26)", "value": "148.0 ± 8.4", "unit": "ms"}, {"measurement": "QTc", "setting": "Female, 100 mg/kg, 24 h (d 26)", "value": "239.8 ± 10.5", "unit": "ms"}, {"measurement": "HR", "setting": "Female, 100 mg/kg, d0", "value": "182.3 ± 28.9", "unit": "bmp"}, {"measurement": "QRS", "setting": "Female, 100 mg/kg, d0", "value": "32.0 ± 4.5", "unit": "ms"}, {"measurement": "QT", "setting": "Female, 100 mg/kg, d0", "value": "170.0 ± 12.2", "unit": "ms"}, {"measurement": "QTc", "setting": "Female, 100 mg/kg, d0", "value": "245.0 ± 9.2", "unit": "ms"}, {"measurement": "HR", "setting": "Female, 100 mg/kg, d 56", "value": "230.8 ± 5.0", "unit": "bmp"}, {"measurement": "QRS", "setting": "Female, 100 mg/kg, d 56", "value": "30.0 ± 0.0", "unit": "ms"}, {"measurement": "QT", "setting": "Female, 100 mg/kg, d 56", "value": "160.0 ± 0.0", "unit": "ms"}, {"measurement": "QTc", "setting": "Female, 100 mg/kg, d 56", "value": "250.7 ± 1.8", "unit": "ms"}, {"measurement": "HR", "setting": "Female, 450 mg/kg, 1 h (d 1)", "value": "211.3 ± 20.5", "unit": "bmp"}, {"measurement": "QRS", "setting": "Female, 450 mg/kg, 1 h (d 1)", "value": "50.0 ± 14.1", "unit": "ms"}, {"measurement": "QT", "setting": "Female, 450 mg/kg, 1 h (d 1)", "value": "175.0 ± 17.3", "unit": "ms"}, {"measurement": "QTc", "setting": "Female, 450 mg/kg, 1 h (d 1)", "value": "265.5 ± 19.9", "unit": "ms"}, {"measurement": "HR", "setting": "Female, 450 mg/kg, 1 h (d 26)", "value": "262.7 ± 15.4", "unit": "bmp"}, {"measurement": "QRS", "setting": "Female, 450 mg/kg, 1 h (d 26)", "value": "40.0 ± 0.2", "unit": "ms"}, {"measurement": "QT", "setting": "Female, 450 mg/kg, 1 h (d 26)", "value": "140.0 ± 8.2", "unit": "ms"}, {"measurement": "QTc", "setting": "Female, 450 mg/kg, 1 h (d 26)", "value": "229.0 ± 14.6", "unit": "ms"}, {"measurement": "HR", "setting": "Female, 450 mg/kg, 24 h (d 1)", "value": "211.3 ± 2.4", "unit": "bmp"}, {"measurement": "QRS", "setting": "Female, 450 mg/kg, 24 h (d 1)", "value": "35.0 ± 5.8", "unit": "ms"}, {"measurement": "QT", "setting": "Female, 450 mg/kg, 24 h (d 1)", "value": "162.5 ± 9.6", "unit": "ms"}, {"measurement": "QTc", "setting": "Female, 450 mg/kg, 24 h (d 1)", "value": "247.2 ± 13.8", "unit": "ms"}, {"measurement": "HR", "setting": "Female, 450 mg/kg, 24 h (d 26)", "value": "257.8 ± 9.0", "unit": "bmp"}, {"measurement": "QRS", "setting": "Female, 450 mg/kg, 24 h (d 26)", "value": "32.5 ± 5.0", "unit": "ms"}, {"measurement": "QT", "setting": "Female, 450 mg/kg, 24 h (d 26)", "value": "152.5 ± 9.6", "unit": "ms"}, {"measurement": "QTc", "setting": "Female, 450 mg/kg, 24 h (d 26)", "value": "247.8 ± 14.4", "unit": "ms"}, {"measurement": "HR", "setting": "Female, 450 mg/kg, d0", "value": "174.1 ± 28.8", "unit": "bmp"}, {"measurement": "QRS", "setting": "Female, 450 mg/kg, d0", "value": "32.0 ± 4.5", "unit": "ms"}, {"measurement": "QT", "setting": "Female, 450 mg/kg, d0", "value": "168.0 ± 16.4", "unit": "ms"}, {"measurement": "QTc", "setting": "Female, 450 mg/kg, d0", "value": "238.1 ± 12.7", "unit": "ms"}, {"measurement": "HR", "setting": "Female, 450 mg/kg, d 56", "value": "207.4 ± 28.1", "unit": "bmp"}, {"measurement": "QRS", "setting": "Female, 450 mg/kg, d 56", "value": "25.0 ± 7.1", "unit": "ms"}, {"measurement": "QT", "setting": "Female, 450 mg/kg, d 56", "value": "170.0 ± 14.1", "unit": "ms"}, {"measurement": "QTc", "setting": "Female, 450 mg/kg, d 56", "value": "256.3 ± 9.7", "unit": "ms"}, {"measurement": "HR", "setting": "Male, 20 mg/kg, 1 h (d 1)", "value": "216.0 ± 27.0", "unit": "bmp"}, {"measurement": "QRS", "setting": "Male, 20 mg/kg, 1 h (d 1)", "value": "32.0 ± 4.5", "unit": "ms"}]}]}
